Data: PubChem BioAssay (NCI)
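48-hour exposure; five concentrations; linearly interpolated endpoints. The concentration for full growth arrest is given as TGI.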

Assays:
Assay in all cases: inhibition of tumour cell growth, NCI panel, 48 h
786-0 renal = tested on: 786-0 renal
A498 renal = tested on: A498 renal
HCT-15 colon = tested on: HCT-15 colon
HOP-62 NSCLC = tested on: HOP-62 NSCLC
HT29 colon = tested on: HT29 colon
MDA-MB-231 breast = tested on: MDA-MB-231 breast
NCI-H23 lung = tested on: NCI-H23 lung
NCI-H522 lung = tested on: NCI-H522 lung
OVCAR-4 ovarian = tested on: OVCAR-4 ovarian
OVCAR-5 ovarian = tested on: OVCAR-5 ovarian
RXF 393 renal = tested on: RXF 393 renal
SK-MEL-2 melanoma = tested on: SK-MEL-2 melanoma
SK-OV-3 ovarian = tested on: SK-OV-3 ovarian
SNB-19 CNS = tested on: SNB-19 CNS
SNB-75 CNS = tested on: SNB-75 CNS
T-47D breast = tested on: T-47D breast
UACC-257 melanoma = tested on: UACC-257 melanoma
M14 melanoma = tested on: M14 melanoma
MOLT-4 leukemia = tested on: MOLT-4 leukemia
SR leukemia = tested on: SR leukemia

Row | Compound | TGI (786-0 renal) [µM] | TGI (A498 renal) [µM] | TGI (HCT-15 colon) [µM] | TGI (HOP-62 NSCLC) [µM] | TGI (HT29 colon) [µM] | TGI (MDA-MB-231 breast) [µM] | TGI (NCI-H23 lung) [µM] | TGI (NCI-H522 lung) [µM] | TGI (OVCAR-4 ovarian) [µM] | TGI (OVCAR-5 ovarian) [µM] | TGI (RXF 393 renal) [µM] | TGI (SK-MEL-2 melanoma) [µM] | TGI (SK-OV-3 ovarian) [µM] | TGI (SNB-19 CNS) [µM] | TGI (SNB-75 CNS) [µM] | TGI (T-47D breast) [µM] | TGI (UACC-257 melanoma) [µM] | TGI (M14 melanoma) [µM] | TGI (MOLT-4 leukemia) [µM] | TGI (SR leukemia) [µM]
1 | CC(O)c1cc2c(s1)C(=O)c1c(C(C)O)csc1C2=O (centres undefined) | 2.08 | 0.462 | 0.422 | 0.439 | 2.7 | 0.482 | 0.24 | 1.13 | 0.524 | 1.35 | 0.656 | 0.292 | 1.76 | 1.08 | 0.566 | 0.667 | 0.216 | – | – | –
2 | CC1(C)CC(=O)c2c(nc3c(ccc4ccccc43)c2-c2ccc(NC(=O)CCC(=O)Nc3ccc(-c4c5c(nc6c4ccc4ccccc46)CC(C)(C)CC5=O)cc3)cc2)C1 | > 100 | – | > 100 | > 100 | > 100 | > 100 | – | > 100 | – | > 100 | > 100 | > 100 | > 100 | > 100 | > 100 | > 100 | > 100 | > 100 | > 100 | > 100
3 | COc1ccc(-c2c(-c3ccccc3)c(C)c3ccccn23)cc1 | > 100 | > 100 | > 100 | > 100 | > 100 | > 100 | > 100 | > 100 | > 100 | > 100 | – | > 100 | > 100 | > 100 | > 100 | > 100 | > 100 | > 100 | > 100 | > 100
4 | COc1cc(C2c3cc4c(cc3OC(NNS(=O)(=O)c3ccc(C)cc3)C2C)OCO4)cc(OC)c1OC (centres undefined) | 31.5 | 5.69 | > 22.8 | 4.68 | 5.38 | > 64.1 | > 74.6 | 4.87 | 48.4 | > 100 | 23.8 | 36.9 | > 70.6 | > 49.1 | 17.1 | > 100 | > 53.2 | 14.5 | > 100 | –
5 | CC1(C)OCC(C2OC3OC(C)(C)OC3C2c2ccccc2)O1 (centres undefined) | > 100 | – | > 100 | > 100 | > 100 | > 100 | 97.2 | > 100 | > 100 | > 100 | > 100 | 64.8 | > 100 | > 100 | > 100 | > 100 | > 100 | 93.9 | > 100 | > 100
6 | COc1ccc(-c2oc3cc(OC)c(OC)c(O)c3c(=O)c2OC)cc1 | 68.2 | – | > 100 | > 100 | > 100 | 50 | – | > 100 | > 100 | > 100 | 78.8 | > 100 | > 100 | > 100 | 37.4 | > 100 | > 100 | > 100 | > 100 | > 100
7 | O=C1/C(=C\c2ccc(Br)cc2)CCCc2ccccc21 | 27.8 | 45.6 | 24.8 | > 100 | 30.4 | 42 | 36.4 | – | 26.3 | > 100 | 43.3 | 39.2 | > 100 | 32.6 | 52.7 | 50.6 | 39.6 | > 100 | 58.5 | 58
8 | CC1(C)CO[P@@](=S)(c2ccccn2)O[C@@H]1c1ccccc1 | > 100 | > 100 | > 100 | > 100 | > 100 | > 100 | > 100 | > 100 | > 100 | > 100 | > 100 | – | > 100 | > 100 | > 100 | > 100 | > 100 | > 100 | > 100 | > 100
9 | O=c1[nH]nc(-c2ccccc2)n1/N=C/c1ccccc1O | > 100 | > 100 | > 100 | – | > 100 | > 100 | > 100 | > 100 | > 100 | > 100 | > 100 | > 100 | 53.9 | > 100 | – | > 100 | > 100 | – | > 100 | > 100
10 | Nc1nc2ccc(Sc3ccc4nc(N)[nH]c(=O)c4c3)cc2c(=O)[nH]1 | > 100 | – | > 100 | – | > 100 | > 100 | > 100 | > 100 | > 100 | > 100 | > 100 | > 100 | > 100 | > 100 | > 100 | > 100 | > 100 | > 100 | > 100 | > 100
11 | Oc1ccc(/C=C/c2cccc(/C=C/c3ccc(O)c(O)c3)n2)cc1O | 24.7 | 26.2 | > 100 | > 100 | 24.5 | 76.7 | – | – | > 100 | 23.6 | – | 32.5 | 34 | 18.8 | 16.5 | 7.06 | 28.5 | 16.9 | 17.8 | 14.5
12 | O=C1CCCC/C1=C\c1ccc([N+](=O)[O-])cc1 | 28.1 | – | – | 29 | > 100 | 52.6 | 54.8 | 30.2 | 53.1 | > 100 | – | 46 | 30.9 | 32.5 | 46 | 65.3 | 38.5 | 40.8 | 30.4 | > 100
13 | Cc1cccc2[nH]c3c(c(O)cc4[nH]c5cccc(C)c5c(=O)c43)c(=O)c12 | 8.03 | > 10 | > 10 | > 10 | > 10 | > 10 | 8.5 | > 10 | > 10 | > 10 | > 10 | > 10 | > 10 | > 10 | > 10 | > 10 | > 10 | > 10 | > 10 | –
14 | N#Cc1c(=O)c2ccccc2n2ccccc12 | > 100 | > 100 | > 100 | – | > 100 | > 100 | > 100 | > 100 | > 100 | – | – | 90.8 | – | > 100 | > 100 | > 100 | > 100 | – | – | > 100
15 | COc1cc(/C=N/N=C(\N)NO)cc(OC)c1OC | 39.2 | > 100 | > 100 | > 100 | > 100 | > 100 | > 100 | 80.6 | > 100 | > 100 | > 100 | > 100 | > 100 | > 100 | – | > 100 | > 100 | > 100 | > 100 | 71.2
16 | CCC(=O)N/S(=N/S(=O)(=O)c1ccccc1)C(Cl)(Cl)Cl (centres undefined) | > 100 | > 100 | > 100 | > 100 | > 100 | > 100 | > 100 | – | > 100 | > 100 | > 100 | > 100 | > 100 | > 100 | > 100 | > 100 | > 100 | > 100 | > 100 | > 100
17 | COc1ccc2c(O)c(S(=O)(=O)c3ccc(C)cc3)c(=O)oc2c1OC | > 100 | – | > 100 | – | > 100 | > 100 | > 100 | > 100 | > 100 | > 100 | > 100 | > 100 | > 100 | > 100 | > 100 | > 100 | > 100 | > 100 | > 100 | > 100
18 | CC1CN=C(Nc2cccc(F)c2)S1 (centres undefined) | > 100 | – | > 100 | > 100 | > 100 | 25.2 | > 100 | > 100 | > 100 | > 100 | > 100 | > 100 | > 100 | > 100 | > 100 | > 100 | > 100 | > 100 | – | > 100
19 | Nc1[nH]c(=O)nc2snnc12 | > 100 | – | > 100 | > 100 | > 100 | > 100 | > 100 | > 100 | > 100 | > 100 | > 26.8 | 14.4 | > 100 | > 100 | > 100 | > 100 | > 100 | > 100 | > 100 | > 100
20 | CC(=O)NC1(NC(C)=O)C2CC(C1Cc1ccccc1)C(C)(C)C2C (centres undefined) | > 100 | > 100 | – | > 100 | > 100 | > 100 | > 100 | > 100 | > 100 | > 100 | > 100 | – | > 100 | > 100 | > 100 | > 100 | > 100 | > 100 | > 100 | > 100
21 | COc1ccc(-c2c(-c3ccc(OC)cc3)n3c(=O)n(C)c(=O)n23)cc1 | > 100 | 95.3 | > 100 | > 100 | – | > 100 | > 100 | > 100 | > 100 | – | > 100 | > 100 | > 100 | 97.7 | > 100 | 57.1 | > 100 | > 100 | > 100 | –
22 | N=c1oc2ccccc2cc1-c1nc2ccccc2[nH]1 | 28.8 | – | > 100 | > 100 | > 100 | 57.6 | – | 4.57 | > 100 | > 100 | > 100 | > 100 | > 100 | > 100 | > 100 | > 100 | > 100 | > 100 | > 100 | > 100
23 | Cc1ccc(S(=O)(=O)CNC(=O)C(O)(O)C(F)(F)F)cc1 | > 100 | > 100 | > 100 | > 100 | > 100 | > 100 | > 100 | > 100 | > 100 | > 100 | > 100 | > 100 | > 100 | > 100 | – | > 100 | > 100 | > 100 | > 100 | > 100
24 | O=Cc1ccc(OC[C@H]2COC(=O)N2)cc1 | > 100 | – | > 100 | > 100 | > 100 | > 100 | > 100 | > 100 | > 100 | > 100 | > 100 | > 100 | > 100 | > 100 | > 100 | > 100 | > 100 | > 100 | > 100 | > 100
25 | COC(=O)C1Cc2c(OC)ccc(OC)c2C(O)C1C(=O)OC (centres undefined) | > 100 | – | – | > 100 | > 100 | > 100 | > 100 | > 100 | > 100 | > 100 | > 100 | > 100 | – | > 100 | > 100 | > 100 | > 100 | > 100 | > 100 | > 100
26 | N#Cc1c2ccc([N+](=O)[O-])cc2c(=O)n2c1[nH]c1ccc(C(F)(F)F)cc12 | > 100 | > 48.8 | > 100 | > 100 | > 47.4 | > 77.8 | 65.3 | 38.7 | > 100 | > 100 | – | > 100 | > 100 | > 100 | > 100 | > 100 | > 100 | > 100 | > 100 | > 25.7
